≈ marks a conversion by molar mass, not a printed value. Like-named read-outs stand apart in the source and are kept apart here.
What was measured:
Experiment in all cases: Antifungal activity, MIC microdilution
Format in all cases: cell-based
[1] = test system: Candida glabrata; settings: strain ATCC 90030, RPMI 1640, 35° C., 24-48 hours
Method: (§1) Antifungal activity for the compounds of this invention was established by evaluating a representative compound of this invention (Compound I) against several strains of fungi. Briefly the following procedure was used to evaluate such activity. A 96 U-bottom microtiter plate was filled (50 μl/well) with RPMI 1640. The compounds to be evaluated were placed in appropriate wells, and serial diluted in successive wells to provide 11 dilutions. The concentrations ranged from 64 through 0.06 μg/ml. An adjusted inoculum of fungi (50 μl) was added to each well and the plates were incubated at 35° C. for 24-48 hours.

[2] = test system: Candida tropicalis; settings: RPMI 1640, 35° C., 24-48 hours
Method: as §1

[3] = test system: Aspergillus fumigatus; settings: strain ATCC 26933, RPMI 1640, 35° C., 24-48 hours
Method: as §1

[4] = test system: Candida krussii; settings: strain 94-2, RPMI 1640, 35° C., 24-48 hours
Method: as §1

[5] = test system: Candida parapsilosis; settings: RPMI 1640, 35° C., 24-48 hours
Method: as §1

[6] = test system: Filobasidiella neoformans; settings: strain ATCC 7472, RPMI 1640, 35° C., 24-48 hours
Method: as §1

[7] = test system: Cryptococcus neoformans; settings: strain ATCC 90112, RPMI 1640, 35° C., 24-48 hours
Method: as §1

[8] = test system: Aspergillus niger; settings: strain S-430, RPMI 1640, 35° C., 24-48 hours
Method: as §1, with “Briefly” for “Antifungal activity for the compounds of this invention was established by evaluating a representative compound of this invention (Compound I) against several strains of fungi. Briefly”

[9] = test system: Aspergillus flavus
Method: as §1, with “Briefly” for “Antifungal activity for the compounds of this invention was established by evaluating a representative compound of this invention (Compound I) against several strains of fungi. Briefly”

[10] = test system: Candida albicans; settings: RPMI 1640, 35° C., 24-48 hours
Method: as §1, with “Briefly” for “Antifungal activity for the compounds of this invention was established by evaluating a representative compound of this invention (Compound I) against several strains of fungi. Briefly”

[11] = test system: Candida rugosa; settings: strain 94-10, RPMI 1640, 35° C., 24-48 hours
Method: as §1, with “Briefly” for “Antifungal activity for the compounds of this invention was established by evaluating a representative compound of this invention (Compound I) against several strains of fungi. Briefly”

[12] = test system: Candida pseudotropicalis; settings: strain ATCC 28838, RPMI 1640, 35° C., 24-48 hours
Method: as §1, with “Briefly” for “Antifungal activity for the compounds of this invention was established by evaluating a representative compound of this invention (Compound I) against several strains of fungi. Briefly”

[13] = test system: Candida lusitaniae; settings: Clavispora lusitaniae; strain 94-3; RPMI 1640, 35° C., 24-48 hours; read-out: MIC
Method: as §1, with “Briefly” for “Antifungal activity for the compounds of this invention was established by evaluating a representative compound of this invention (Compound I) against several strains of fungi. Briefly”

[14] = test system: Saccharomyces cerevisiae
Method: as §1, with “Briefly” for “Antifungal activity for the compounds of this invention was established by evaluating a representative compound of this invention (Compound I) against several strains of fungi. Briefly”

[15] = test system: Candida zeylanoided; settings: strain 94-15, RPMI 1640, 35° C., 24-48 hours
Method: as §1, with “Briefly” for “Antifungal activity for the compounds of this invention was established by evaluating a representative compound of this invention (Compound I) against several strains of fungi. Briefly”

[16] = Nakaseomyces glabratus, ATCC90030, read-out: MIC
[17] = Candida tropicalis, strain 94-14, read-out: MIC
[18] = Aspergillus fumigatus, ATCC26933, read-out: MIC
[19] = Lodderomyces parapsilosis, ATCC90018, strain ATCC 90018, read-out: MIC
[20] = Lodderomyces parapsilosis, strain 94-8, read-out: MIC
[21] = Lodderomyces parapsilosis, strain 94-9, read-out: MIC
[22] = Cryptococcus neoformans, ATCC7472, read-out: MIC
[23] = Cryptococcus neoformans, ATCC90112, read-out: MIC
[24] = Aspergillus niger, read-out: MIC
[25] = Aspergillus flavus, ATCC12963, strain ATCC 12963, RPMI 1640, 35° C., 24-48 hours, read-out: MIC
[26] = Kluyveromyces marxianus, ATCC28838, read-out: MIC
[27] = Candida albicans, ATCC90028, strain ATCC 90028
[28] = Saccharomyces cerevisiae, ATCC2601, strain ATCC 2601, RPMI 1640, 35° C., 24-48 hours, read-out: MIC

SMILES | MIC [1, 16] [µg/mL] | MIC [2, 17] [µg/mL] | MIC ([2]; strain 94-13) [µg/mL] | MIC [3, 18] [µg/mL] | MIC ([4]; Candida, read-out: MIC) [µg/mL] | MIC [5, 19] [µg/mL] | MIC [5, 20] [µg/mL] | MIC [5, 21] [µg/mL] | MIC [6, 22] [µg/mL] | MIC [7, 23] [µg/mL] | MIC [8, 24] [µg/mL] | MIC [9, 25] [µg/mL] | MIC ([11]; Diutina rugosa, read-out: MIC) [µg/mL] | MIC [12, 26] [µg/mL] | MIC [13] [µg/mL] | MIC ([15]; Candida, read-out: MIC) [µg/mL] | MIC [10, 27] [µg/mL] | MIC ([10]; Candida albicans, strain 94-1) [µg/mL] | MIC ([10]; Candida albicans, strain 1063) [µg/mL] | MIC ([10]; Candida albicans, strain 1117) [µg/mL] | also measured
CC1C=CC=CC=CC=CC=CC=CC=CC(OC2OC(C)C(O)C(N)C2O)CC2OC(O)(CC(O)CC(O)C(O)CCC(O)CC(O)CC(=O)OC(C)C(C)C1O)CC(O)C2C(=O)O (stereo not drawn) [Amphtericin B] | 0.25 (≈ 0.271 µM) | 0.25 (≈ 0.271 µM) | 0.25 (≈ 0.271 µM) | 0.25 (≈ 0.271 µM) | 0.5 (≈ 0.541 µM) | ≤ 0.12 | 0.25 (≈ 0.271 µM) | 0.5 (≈ 0.541 µM) | 0.12 (≈ 0.13 µM) | ≤ 0.12 | 0.25 (≈ 0.271 µM) | 2 (≈ 2.16 µM) | 0.25 (≈ 0.271 µM) | 0.25 (≈ 0.271 µM) | ≤ 0.12 | 0.25 (≈ 0.271 µM) | – | – | – | – | MIC ([10]; Candida albicans, ATCC90028, strain ATCC 90028, read-out: MIC): 0.25 µg/mL (≈ 0.271 µM); MIC ([10]; Candida albicans, strain 94-1, read-out: MIC): ≤ 0.12 µg/mL; MIC ([10]; Candida albicans, strain 1063, read-out: MIC): 0.25 µg/mL (≈ 0.271 µM); MIC ([10]; Candida albicans, strain 1117, read-out: MIC): 0.25 µg/mL (≈ 0.271 µM); MIC ([10]; Candida albicans, strain C-83, read-out: MIC): 0.25 µg/mL (≈ 0.271 µM); MIC ([14]; Saccharomyces cerevisiae, ATCC2601): ≤ 0.12 µg/mL
OC(Cn1cncn1)(Cn1cncn1)c1ccc(F)cc1F [Fluconazole] | 4 (≈ 13.1 µM) | ≥ 16 | ≥ 16 | > 16 | ≥ 16 | 0.5 (≈ 1.63 µM) | 0.5 (≈ 1.63 µM) | 0.5 (≈ 1.63 µM) | 16 (≈ 52.2 µM) | 8 (≈ 26.1 µM) | > 16 | > 16 | 2 (≈ 6.53 µM) | ≤ 0.12 | 1 (≈ 3.27 µM) | ≥ 16 | ≥ 16 | ≥ 16 | 4 (≈ 13.1 µM) | 8 (≈ 26.1 µM) | MIC ([10]; Candida albicans, strain C-83): ≥ 16 µg/mL; MIC [14, 28]: 8 µg/mL (≈ 26.1 µM)
Clc1ccc(COC(Cn2ccnc2)c2ccc(Cl)cc2Cl)c(Cl)c1 (stereo not drawn) [Miconazole] | ≤ 0.12 | 4 (≈ 9.61 µM) | 4 (≈ 9.61 µM) | 1 (≈ 2.4 µM) | 2 (≈ 4.81 µM) | ≤ 0.12 | 0.25 (≈ 0.601 µM) | 0.5 (≈ 1.2 µM) | 0.25 (≈ 0.601 µM) | ≤ 0.12 | 4 (≈ 9.61 µM) | – | ≤ 0.12 | ≤ 0.12 | ≤ 0.12 | 0.25 (≈ 0.601 µM) | 0.5 (≈ 1.2 µM) | 8 (≈ 19.2 µM) | 1 (≈ 2.4 µM) | 1 (≈ 2.4 µM) | MIC ([9]; Aspergillus flavus, ATCC12963): 0.5 µg/mL (≈ 1.2 µM); MIC ([10]; Candida albicans, strain C-83): 8 µg/mL (≈ 19.2 µM); MIC [14, 28]: ≤ 0.12 µg/mL
C[C@@H]1[C@H](O)[C@@H](C)/C=C/C=C/CC/C=C/C=C/C=C/C=C/C(O[C@H]2O[C@H](C)[C@@H](O)[C@H](N)[C@@H]2O)CC2O[C@](O)(CC(O)C(O)CCC(O)CC(O)CC(O)CC(=O)O[C@H]1C)CC(O)C2C(=O)O (stereo partly drawn) [Nystatin] | – | – | 1 (≈ 1.08 µM) | – | – | – | – | – | – | – | – | – | – | – | – | – | – | – | – | – | MIC [1]: 1 µg/mL (≈ 1.08 µM); MIC ([2]; strain 94-14): 2 µg/mL (≈ 2.16 µM); MIC [3]: 1 µg/mL (≈ 1.08 µM); MIC [4]: 2 µg/mL (≈ 2.16 µM); MIC ([5]; strain 94-8): 1 µg/mL (≈ 1.08 µM); MIC ([5]; strain 94-9): 1 µg/mL (≈ 1.08 µM); MIC ([5]; strain ATCC 90018): 1 µg/mL (≈ 1.08 µM); MIC [6]: 0.5 µg/mL (≈ 0.54 µM); MIC [7]: 0.5 µg/mL (≈ 0.54 µM); MIC [8]: 4 µg/mL (≈ 4.32 µM); MIC ([9]; strain ATCC 12963, RPMI 1640, 35° C., 24-48 hours): ≥ 16 µg/mL; MIC ([10]; strain 94-1): 2.0 µg/mL (≈ 2.16 µM); MIC ([10]; strain 1063): 2 µg/mL (≈ 2.16 µM); MIC ([10]; strain 1117): 1 µg/mL (≈ 1.08 µM); MIC ([10]; strain ATCC 90028): 1 µg/mL (≈ 1.08 µM); MIC ([10]; strain C-83): 2 µg/mL (≈ 2.16 µM); MIC [11]: 2 µg/mL (≈ 2.16 µM); MIC [12]: 1 µg/mL (≈ 1.08 µM); MIC ([14]; strain ATCC 2601, RPMI 1640, 35° C., 24-48 hours): 2 µg/mL (≈ 2.16 µM); MIC [15]: 1 µg/mL (≈ 1.08 µM)

Source: US6015809A (priority 1999, dated 2000)
